Six compounds from patent US20030195168A1, “Therapeutic agents - III” (priority 2000, published 2003) can be followed below.

In experiment [1] the test system is HIV-strain pNL4-3. Put plainly: HIV-1 replication in acutely infected PBMC (CA-p24 ELISA). The class given is cell-based. To be noted: 2.8 μM. The protocol:
Experiments were conducted to assess the effect of the compounds of the instant invention on HIV-1 replication in acutely infected T cells. Peripheral blood mononuclear cells (PBMC) were obtained from non-HIV-1, non-HIV-2, non-Hepatitis B/C infected donors, stimulated with phytohemagglutinin-M and grown in culture media supplemented with 10 U/mL interleukin-2. The activated PBMC were infected with […] (Low Titre) and 100 ng (High Titre) of CA-p24 equivalents of the HIV-strain pNL4-3. Cells were infected for two hr after which, the virus was removed and the cells were washed with culture media. Equivalent numbers of cells were seeded into 24 well plates and compounds were added to the cultured cells that included: TPA at 8 riM and 80 nM, Ingenol at 280 nM, PEP003 at 500 nM, 50 nM and 5 nM, or PEP004 at dilutions of 1×10^4 and 1×10^5 from the stock (final concentrations). In addition, uninfected activated PBMC were grown in the presence of TPA (80 nM), Ingenol (280 nM), PEP003 (500 nM) and PEP004 (1×10^4 dilution). Other cultures were neither infected nor treated with any compound, or infected but not treated with any compound. Supernatant was removed from each culture at day 0, 3, 7, and 10. The amount of HIV-1 CA-p24 was determined using a commercially available ELISA assay. Three independent experiments were performed.
(ELISA stands for enzyme-linked immunosorbent assay.)

Experiment [2] relates to peripheral blood mononuclear cells (PBMCs). Put plainly: Phagocytosis with fluorescent beads. The class given is cell-based. Particulars: whole heparinized blood, 30 min at 37° C. As for the experimental part:
Phagocytosis by peripheral blood mononuclear cells (PBMCs) was assayed (Steinkamp et al., 1982) using 1 μm Fluoresbrite™ yellow-green fluorescent latex spheres (Polysciences, Inc., Warrington, Pa.). A sample of whole, heparinized blood was treated with drug and 5×10E7 fluorescent latex beads in 10 μL of PBS added per mL of suspension. Cells were incubated and maintained in suspension for 30 min by means of a shaker platform at 37° C. The stirnulated and non-stimulated samples were then lysed to isolate PBMCs. The PBMCs were run on the flow cytometer measuring FITC (excitation at 488 nm, emission at 525±20 nm), gated for fluorescence (phagocytosed spheres) and light scatter (cell size).

Experiment [3] deals with T1, PKCα (Homo sapiens, UniProt P17252).
T1 construct: host or cells: HeLa cells
The class given is cell-based. Particulars: HeLa. As for the experimental part:
(§1) Five EGFP-PKC isoforms (Clontech) were available for this experiment, enabling the screening of the three predominant PKC families (i.e. classical, novel and atypical PKCs). The members of the various PKC families are α, β, and γ (classical), θ (novel) and ζ (atypical).
(§2) HeLa cells were plated out in a 24-well plate containing coverslips and transfected with PKC isoforms fused to EGFP, using a commercially available effectine-transfection kit (QIAGEN, Pty. Ltd.). Cells were exposed to the transfection reagents for 16-24 hr. Subsequently, transfected cells were treated for one hour with TPA (100 ng/mL), bryostatin-1 (5 pg/mL), PEP003 (2.25 μg/mL; 5 μM) or PEP005 ([…]) 1.5 μM). Following treatment, cells were fixed on coverslips and mounted on glass slides. The slides were subsequently examined visually by fluorescence microscopy, photographed, and over 150 cells were counted/treatment/PKC isoform. Counted cells were classified according to the localisation of the PKC-EGFP fluorescence as either cytoplasmic or plasma membrane using ImagePro™ 4.1 (FIG. 5). […] The number of these cells was also counted.

Experiment [4] concerns the target T2, PKCγ (Homo sapiens, UniProt P05129).
T2 construct: host or cells: HeLa cells
Nature of the experiment: EGFP-PKC isoform translocation in HeLa cells. The class given is cell-based. The protocol: as §1
as §2, with “counted. Results are presented as an average and standard deviation of percentages of cells (Table 1).” for “counted.”

Experiment [5] deals with T3, PKCθ (Homo sapiens, UniProt Q04759).
T3 construct: host or cells: HeLa cells
Nature of the experiment: EGFP-PKC isoform translocation in HeLa cells. The class given is cell-based. Particulars: one hour, TPA 100 ng/mL, bryostatin-1 5 pg/mL, PEP003 2.25 μg/mL (5 μM), PEP005 670 μg/mL (1.5 μM). The protocol: as §1
as §2, with “counted. Results are presented as an average and standard deviation of percentages of cells (Table 1).” for “counted.”

Experiment [6] has as its target T4, PKCβ (Homo sapiens, UniProt P05771).
T4 construct: host or cells: HeLa cells
Put plainly: EGFP-PKC isoform translocation in HeLa cells. The class given is cell-based. Particulars: for number of PKCβ transfected cells with Golgi-like fluorescence: one hour treatment; for translocation of PKCβ to the plasma membrane: one hour, TPA 100 ng/mL, bryostatin-1 5 pg/mL, PEP003 2.25 μg/mL (5 μM), PEP005 670 μg/mL (1.5 μM). The protocol: as §1
as §2, with “counted. Results are presented as an average and standard deviation of percentages of cells (Table 1).” for “counted.”

Experiment [7] has as its target T5, PKCζ (Homo sapiens, UniProt Q05513).
T5 construct: host or cells: HeLa cells
T5 sequence (Q05513 1-592): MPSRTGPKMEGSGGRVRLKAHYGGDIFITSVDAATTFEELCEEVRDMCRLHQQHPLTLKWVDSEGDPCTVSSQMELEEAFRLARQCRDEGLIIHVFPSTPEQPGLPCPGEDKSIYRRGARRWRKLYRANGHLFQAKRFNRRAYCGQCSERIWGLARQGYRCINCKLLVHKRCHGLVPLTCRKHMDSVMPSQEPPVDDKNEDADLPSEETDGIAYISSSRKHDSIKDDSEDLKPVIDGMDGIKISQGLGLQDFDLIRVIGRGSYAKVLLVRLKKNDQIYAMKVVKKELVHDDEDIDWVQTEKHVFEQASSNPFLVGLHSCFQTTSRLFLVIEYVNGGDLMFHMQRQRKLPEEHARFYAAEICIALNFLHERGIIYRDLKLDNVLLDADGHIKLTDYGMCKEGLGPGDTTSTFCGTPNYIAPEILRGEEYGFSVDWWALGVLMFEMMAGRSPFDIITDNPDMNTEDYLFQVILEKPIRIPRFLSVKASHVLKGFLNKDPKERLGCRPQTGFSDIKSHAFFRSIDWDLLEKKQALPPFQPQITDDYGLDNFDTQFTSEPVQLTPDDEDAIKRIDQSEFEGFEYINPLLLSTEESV
Put plainly: EGFP-PKC isoform translocation in HeLa cells. The class given is cell-based. To be noted: one hour, TPA 100 ng/mL, bryostatin-1 5 pg/mL, PEP003 2.25 μg/mL (5 μM), PEP005 670 μg/mL (1.5 μM). The protocol: as §1
as §2, with “counted. Results are presented as an average and standard deviation of percentages of cells (Table 1).” for “counted.”

The test system of experiment [8] is adenovirus 5. Nature of the experiment: Adenovirus 5 replication in human melanoma cells. To be noted: 2 days. The class given is cell-based. An excerpt: Human melanoma cells were infected with ten-fold dilutions of adenovirus 5 in culture, treated with dilutions of PEP005, PEP006, PEP008 and PEP010 and adenovirus replication determined 2 days later by immunhistochemical detection of virus-replicating cells.

For experiment [9], the system named is MM96L human melanoma cells. Nature of the experiment: Leukocyte killing of tumor cells, [3H]-thymidine labelling. The class given is cell-based. To be noted: 100:1 effector:target, 48 hr. The protocol: (§3) Leukocytes obtained by lysis of human peripheral blood were added to 5000 MM96L human melanoma cells or 7000 neonatal foreskin fibroblasts per microtitre well at effector: target ratios of 1000, 100 and 10:1. Ing9 (60 ng/mL) was added and after 48 hr incubation the cultures were washed and labelled with [3H]-thymidine for 2 hr. […] Untreated leukocytes had no effect on cell survival.
(§4) Leukocytes obtained by lysis of human peripheral blood were added to 5000 MM96L human melanoma cells or 7000 neonatal foreskin fibroblasts per microtitre well at effector: target ratios of 1000, 100 and 10:1. The target cells had been treated with 60 ng/mL PEP008 for 20 hr beforehand, and washed and the medium replaced before the leukocytes were added. After 48 hr incubation with the leukocytes the cultures were washed and labelled with [3H]-thymidine for 2 hr. […] Untreated leukocytes had no effect on cell survival.

In experiment [10] the test system is neonatal foreskin fibroblasts. Nature of the experiment: Leukocyte killing of normal cells, [3H]-thymidine labelling. The class given is cell-based, human. To be noted: 100:1 effector:target, 48 hr. As for the experimental part:
as §3, §4

The subject of experiment [11] is Peripheral blood mononuclear cells (PBMC). Put plainly: Respiratory burst (H2O2) in PBMC, DCFH-DA flow cytometry. The class given is cell-based. Particulars: 15 min at 37° C.; granulocytes, monocytes, lymphocytes. The protocol: Experiments were also carried out using 2′,7′-dichlorofluorescein diacetate (DCFH-DA) to measure the production of H2O2.(J P Robinson, Oxidative burst methods, in Handbook of Flow Cytometry Methods, Wiley-Liss Inc, pp147-149, 1993). H2O2 oxidizes the non-fluorescent probe (DCFH-DA) to a fluorescent probe that can then be detected by a flow cytometer. Peripheral blood mononuclear cells (PBMC) were extracted from a donor blood sample by lysis of heparinized blood and used in a suspension of 1×10^6/mL of phosphate buffer, pH 7.3. The cells were then incubated with DCFH-DA (1 μL/mL of 20 mM stock) for 15 minutes to allow it to be taken up and trapped by hydrolysis with cellular esterases. The cells were then stimulated by test compounds for 15 min at 37° C. Controls included in the experiment were unloaded control (cells with no DCFH-DA) and loaded control (cells with DCFH-DA, but no stimulation). These were used to monitor the non-specific oxidation of unstimulated cells. The cells were then analyzed on the flow cytometer (excitation at 488 nm, emission at 525±20 nm), gating each sample for individual cell populations-granulocytes, monocytes and lymphocytes (Table 3).

The test system of experiment [12] is rat brain PKC. Put plainly: PepTag non-radioactive PKC kinase activity assay. To be noted: FIG. 1; TPA 100-0.01 ng/ml; ether extract final dilution 1 in 5; aqueous layer and crude sap diluted 1/25.
Description: The kinase activity of rat brain PKC (Promega) was determined using the Peptag™ Non-Radioactive Protein Kinase Kit (Promega). Using agarose gel electrophoresis the technique visualises the opposing electrostatic charge of a fluorescently labeled peptide ([sequence]) compared to the phosphorylated version of the same peptide.
The reaction mixture was separated by gel electrophoresis, showing migration of the unreacted substrate (a) to the anode (top), and the product (b), which is more negatively charged because of phosphorylation by PKC, moving towards the cathode (bottom).
Setting [13] is: target cells pre-treated with 60 ng/mL for 20 hr, washed.

T4 sequence (P05771 whole entry, species assumed): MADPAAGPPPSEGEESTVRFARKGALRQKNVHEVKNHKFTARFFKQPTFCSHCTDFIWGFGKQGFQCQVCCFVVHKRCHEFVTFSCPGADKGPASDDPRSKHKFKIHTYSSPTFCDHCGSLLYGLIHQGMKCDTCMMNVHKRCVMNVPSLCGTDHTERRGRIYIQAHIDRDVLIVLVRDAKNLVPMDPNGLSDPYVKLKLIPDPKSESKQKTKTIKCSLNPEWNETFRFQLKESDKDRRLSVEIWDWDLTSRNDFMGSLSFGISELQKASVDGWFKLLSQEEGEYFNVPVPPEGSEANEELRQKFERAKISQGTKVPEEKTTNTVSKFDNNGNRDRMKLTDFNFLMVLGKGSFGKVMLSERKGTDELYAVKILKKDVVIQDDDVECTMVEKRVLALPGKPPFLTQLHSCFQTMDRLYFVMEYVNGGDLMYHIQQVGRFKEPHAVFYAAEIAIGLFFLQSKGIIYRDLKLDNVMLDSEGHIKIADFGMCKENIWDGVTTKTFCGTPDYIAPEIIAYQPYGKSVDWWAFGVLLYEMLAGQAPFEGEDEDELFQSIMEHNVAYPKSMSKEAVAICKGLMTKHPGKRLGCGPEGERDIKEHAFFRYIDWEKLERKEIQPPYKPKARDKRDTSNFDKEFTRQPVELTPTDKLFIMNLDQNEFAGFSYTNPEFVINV
T3 sequence (Q04759 whole entry): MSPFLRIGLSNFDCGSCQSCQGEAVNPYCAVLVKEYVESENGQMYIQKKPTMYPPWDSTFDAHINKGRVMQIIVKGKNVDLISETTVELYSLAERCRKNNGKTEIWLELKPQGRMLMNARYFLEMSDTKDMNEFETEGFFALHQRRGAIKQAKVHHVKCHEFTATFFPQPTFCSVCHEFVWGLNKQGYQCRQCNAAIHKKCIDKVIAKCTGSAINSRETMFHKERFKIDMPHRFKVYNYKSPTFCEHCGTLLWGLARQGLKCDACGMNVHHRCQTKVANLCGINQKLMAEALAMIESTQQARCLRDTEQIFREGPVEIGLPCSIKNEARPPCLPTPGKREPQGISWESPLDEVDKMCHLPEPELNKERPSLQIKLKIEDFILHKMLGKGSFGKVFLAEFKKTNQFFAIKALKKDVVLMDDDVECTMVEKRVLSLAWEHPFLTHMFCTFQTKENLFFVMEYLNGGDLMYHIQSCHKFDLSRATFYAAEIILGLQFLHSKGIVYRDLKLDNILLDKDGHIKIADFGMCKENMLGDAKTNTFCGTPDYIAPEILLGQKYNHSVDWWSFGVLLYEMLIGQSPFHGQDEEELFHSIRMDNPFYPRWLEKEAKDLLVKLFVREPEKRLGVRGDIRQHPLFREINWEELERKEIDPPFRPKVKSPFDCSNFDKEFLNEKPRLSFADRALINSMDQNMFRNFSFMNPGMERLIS

`CC1=C[C@]23C(=O)[C@@H](C=C(CO)[C@@H](O)[C@]2(O)[C@H]1O)[C@H]1[C@@H](C[C@H]3C)C1(C)C` [Ingenol]: the “reduction of HIV-1 replication rate” value in experiment [1] was “approximately 35%”.

With `C/C=C(/C)C(=O)O[C@H]1C(C)=C[C@]23C(=O)[C@@H](C=C(CO)[C@@H](O)[C@]12O)[C@H]1[C@@H](C[C@H]3C)C1(C)C` [PEP005, 20-hydroxy-ingenol-3-angelate], the “stimulation of phagocytosis of fluorescent latex beads” value (shortened to “stimulation”) in experiment [2] is “stimulate phagocytosis in PBMCs”. The “number of PKCα transfected cells displaying Golgi-like fluorescence” value in experiment [3] (one hour treatment) is “increase in the number of cells displaying Golgi-like fluorescence”. The “translocation of PKCα to the plasma membrane” value in experiment [3] (one hour, TPA 100 ng/mL, bryostatin-1 5 pg/mL, PEP003 2.25 μg/mL (5 μM)) was “translocated from the cytoplasm to the plasma membrane”. Also, the “number of PKCγ transfected cells displaying Golgi-like fluorescence” value in experiment [4] (one hour treatment) is “increase in the number of cells displaying Golgi-like fluorescence”. In addition, the “translocation of PKCγ to the plasma membrane” value in experiment [4] (one hour, TPA 100 ng/mL, bryostatin-1 5 pg/mL, PEP003 2.25 μg/mL (5 μM), PEP005 670 μg/mL (1.5 μM)) is given as “translocated from the cytoplasm to the plasma membrane”. The “translocation of PKCθ” value in experiment [5] is “does not induce any change”. Moreover, in [6], the “number of PKCβ transfected cells with Golgi-like fluorescence” value is reported as “decreases the number of cells with PKCβ concentrated in the Golgi” and the “translocation of PKCβ to the plasma membrane” value is recorded as “translocated from the cytoplasm to the plasma membrane”. Besides, the “translocation of PKCζ” value in [7] was “fail to induce translocation”. The “increase of adenovirus replication (number of stained cells)” value (shortened to “increase of adenovirus replication”) in [8] (67 ng/mL) was found to be 344%.

As to `C/C=C(/C)C(=O)O[C@H]1C(C)=C[C@]23C(=O)[C@@H](C=C(CO)[C@@H](O)[C@]12O)[C@H]1[C@@H](C[C@H]3C)C1(C)C` [PEP006, Ingenol-3-angelate], the “stimulation” value in experiment [2] was “stimulate phagocytosis in PBMCs”. In [8] (295 ng/mL), the “increase of adenovirus replication” value is 256%.

In the case of `C/C=C(/C)C(=O)O[C@H]1C(C)=C[C@]23C(=O)[C@@H](C=C(COC(C)=O)[C@@H](O)[C@]12O)[C@H]1[C@@H](C[C@H]3C)C1(C)C` [PEP008, 20-O-acetyl-ingenol-3-angelate], in [2], the “stimulation” value is reported as “stimulate phagocytosis in PBMCs”. Moreover, the entries for the “survival of melanoma cells” value in experiment [9] (60 ng/mL added with leukocytes) and in experiment [9] (setting [13]) were 9% and 12%, respectively. Further, the “increase of adenovirus replication” value in [8] (226 ng/mL) is 248%. In addition, the “survival of normal fibroblasts” value in experiment [10] (60 ng/mL added with leukocytes) and in [10] (setting [13]) was 100% each time.

Regarding `CCC/C=C/C=C/C(=O)O[C@H]1/C(=C/C(=O)OC)C[C@H]2C[C@H]([C@@H](C)O)OC(=O)C[C@H](O)C[C@@H]3C[C@H](OC(C)=O)C(C)(C)[C@](O)(C[C@@H]4C/C(=C/C(=O)OC)C[C@H](/C=C/C(C)(C)[C@]1(O)O2)O4)O3` [bryostatin-1], the “translocation of PKCθ” value in experiment [5] is reported as “translocated”. Also, in experiment [6], the “number of PKCβ transfected cells with Golgi-like fluorescence” value is “decreases the number of cells with PKCβ concentrated in the Golgi” and the “translocation of PKCβ to the plasma membrane” value is listed as “but not with bryostatin-1”. Further, the “translocation of PKCζ” value in [7] is on record as “fail to induce translocation”. Also, the “induction of a respiratory burst (H2O2, DCFH-DA)” value in [11] is on record as “All compounds except Bryostatin induced a respiratory burst”.

As for phosphatidyl serine, the “activation of PKC (phosphorylation of fluorescent PepTag substrate)” value in experiment [12] is listed as “strong activation”.
